Here are results for 1 compound from patent US20210121438A1, “METHODS FOR TREATING OR PREVENTING CONFORMATION DISEASES AND METHODS FOR DRUG SCREENING” (GARAGE BRAIN SCIENCE CO., LTD, priority 2018, published 2021).

Structures are written as SMILES.

For one assay, the system named is SMNA7 cells. Nature of the assay: Morphology (neurite-like structure) of SMNA7 cells. As to conditions: after treating with b-isox. The class given is cell-based. The source says: We investigate whether baicalein can act as a pharmacological chaperone to refold misfolded SMNA7 into a functional prion-like domain, as shown in FIG. 8 (FIG. 10a). […] PFN1 is a known SMN interactor in the cytosol. We further examined whether baicalein attenuated the degradation of the SMNA7 protein. […] We found baicalein increased the length of axons from NSC34 cells expressing SMNA7 by approximately 2-fold (FIG. 10g).

The target of a further assay is T1, SMN (Homo sapiens, UniProt Q16637).
T1 construct: endogenous in cells; host or cells: 293T (also mes23.5)
Nature of the assay: B-isox precipitation, SMN. The class given is binding. As to conditions: 100 μM b-isox, lysates of mes23.5 and 293T cells, 4° C. The protocol: (§1) B-isox Precipitation: The 293T cells were harvested and lysed with RIPA buffer. The protein concentration was adjusted to 1 to 10 mg/mL, and 10 mM biotinylated isoxazole was added to the cell lysate to a final concentration of 100 to 200 µM. The mixtures were then incubated at 4° C. for 60 min, centrifuged at 15000 rpm for 15 min at 4° C., and the supernatant was discarded. The entire reaction volumes were subjected to SDS-PAGE and western blotting.
Biotinylated isoxazole (b-isox), a recently identified specific chemical probe, specifically recognizes the cross-β prion-like polymer and sequentially precipitates with proteins with low complexity, prion-like domains, or phase-separated domains, such as TDP-43 and Fus. We initially incubated 100 μM b-isox with cell lysates of mes23.5 and 293T cells at 4° C. to chemically precipitate whole prion-like proteins and then analyzed the efficiency of SMN binding by western blotting to assess the prion-like or phase transition potential of SMN (FIGS. 8a and b). […] H3K4me3 proteins were used as control for insoluble loading (FIG. 8c). Indeed, insoluble SMN has been reported to be important for the assembly of Cajal bodies (CBs) via the SUMO-like interacting motif (SIM-like). Thus, sumoylation is one of the cellular regulatory mechanisms that trigger nuclear SMN to form the separated phase though cross-β polymerization.

A further assay deals with T2, PFN1 (Homo sapiens, UniProt P07737).
T2 construct: endogenous in cells; host or cells: 293T
Nature of the assay: B-isox precipitation, PFN1. The class given is binding. As to conditions: 293T cell fractions. The procedure: as §1
Because visible SMN granules were not observed in the cytosol under normal conditions, we deduced that SMN polymers may participate in heteromeric interactions with other prion-like proteins to fulfill biological functions in the cytosol. […] Mutations in PFN1 cause co-aggregation with TDP-43 in patients with familial amyotrophic lateral sclerosis (ALS), supporting the hypothesis that PFN1 is a prion-like protein. […] Thus, we postulated that these interactions were mediated by prion-like nature. Furthermore, we incubated full-length SMN or a panel of exon deletion constructs of SMN with b-isox and then performed a western blot analysis to identify the b-isox binding site in SMN. […] The domains encoded by exons 2b and 6 have consistently been reported to self-interact. […] Based on the results of the solubility examination, variants containing exons 6-7 were not detected in the insoluble fraction, although those variants formed visible granules. […]

The target of another assay is T3, Rb (Homo sapiens, UniProt P06400).
T3 construct: endogenous in cells; host or cells: 293T
T3 sequence (P06400 1-928): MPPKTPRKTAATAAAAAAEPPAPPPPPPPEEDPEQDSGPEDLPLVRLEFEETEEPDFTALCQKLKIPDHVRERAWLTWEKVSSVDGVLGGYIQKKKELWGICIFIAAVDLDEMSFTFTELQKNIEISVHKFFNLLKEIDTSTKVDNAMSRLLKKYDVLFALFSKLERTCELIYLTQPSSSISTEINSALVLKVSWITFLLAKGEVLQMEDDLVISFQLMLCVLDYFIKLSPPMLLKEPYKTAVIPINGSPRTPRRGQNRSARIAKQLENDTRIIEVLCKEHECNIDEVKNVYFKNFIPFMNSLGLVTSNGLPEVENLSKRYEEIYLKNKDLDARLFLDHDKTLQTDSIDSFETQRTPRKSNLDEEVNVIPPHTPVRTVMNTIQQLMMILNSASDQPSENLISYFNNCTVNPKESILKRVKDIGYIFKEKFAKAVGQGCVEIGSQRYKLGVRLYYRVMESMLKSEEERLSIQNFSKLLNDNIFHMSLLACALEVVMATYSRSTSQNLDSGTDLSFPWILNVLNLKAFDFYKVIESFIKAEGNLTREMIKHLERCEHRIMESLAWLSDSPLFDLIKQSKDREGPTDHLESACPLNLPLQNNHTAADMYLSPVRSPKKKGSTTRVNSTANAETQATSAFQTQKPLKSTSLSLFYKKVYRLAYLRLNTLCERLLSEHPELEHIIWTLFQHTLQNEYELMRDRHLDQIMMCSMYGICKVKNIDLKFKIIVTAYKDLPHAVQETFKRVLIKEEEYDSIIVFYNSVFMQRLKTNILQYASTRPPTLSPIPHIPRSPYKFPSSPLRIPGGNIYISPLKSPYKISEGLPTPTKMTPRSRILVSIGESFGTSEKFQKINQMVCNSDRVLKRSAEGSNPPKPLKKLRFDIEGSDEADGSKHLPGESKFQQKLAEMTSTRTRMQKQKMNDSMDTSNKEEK
Description: B-isox precipitation, Rb. The class given is binding. As to conditions: 100 μM b-isox, lysates of 293T cells, 4° C. The protocol: as §1
We incubated 100 μM b-isox with cell lysates of 293T cells at 4° C. to chemically precipitate whole prion-like proteins and then analyzed the efficiency of Rb binding by western blotting to assess the prion-like or phase transition potential of Rb (FIG. 22). […] The N-terminus of Rb (aa. 10-56) stabilizes prion-like conformation (FIG. 22c). Deletion of Rb N-terminus leads to protein degradation (FIG. 22d).

In assay [1] the target is T4, TDP-43 and Lam B recombinant proteins (Homo sapiens, UniProt Q13148).
T4 construct: Purified full-length TDP-43 and Lam B recombinant proteins (equivalent 3 μM monomer)
Nature of the assay: In vitro assembly of TDP-43 and Lam B filaments (electron microscopy). The class given is biochemical. As to conditions: 3 μM proteins, b-isox 100 μM, 2 hr, RT. The protocol:
To investigate the de novo mechanism of heterotypic interactions of the cross-β, we incubated TDP-43 and Lam B recombinant proteins with or without b-isox for 2 hr in vitro. […] In cells, the percentage of cross-β conformers of LC protein was approximately 10˜70% by the b-isox binding analysis, e.g. 21.2% cross-β conformers of TDP-43 in Mes23.5 dopaminergic neurons (FIG. 13j). We assume that inside the cells, most of the intrinsically disordered LC domains are protected through structure folding or binding with other proteins that limits the cross-β-nucleating reactions.

T1 sequence (Q16637 2-294): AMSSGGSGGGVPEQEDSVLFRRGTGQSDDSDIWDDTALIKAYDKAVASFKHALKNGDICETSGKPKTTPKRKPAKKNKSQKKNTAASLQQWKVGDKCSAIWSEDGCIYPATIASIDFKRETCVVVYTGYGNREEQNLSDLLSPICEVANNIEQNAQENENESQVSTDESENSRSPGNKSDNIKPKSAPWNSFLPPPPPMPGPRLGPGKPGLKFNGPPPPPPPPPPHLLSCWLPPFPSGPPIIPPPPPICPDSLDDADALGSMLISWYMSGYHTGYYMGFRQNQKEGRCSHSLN
T4 sequence (Q13148 whole entry): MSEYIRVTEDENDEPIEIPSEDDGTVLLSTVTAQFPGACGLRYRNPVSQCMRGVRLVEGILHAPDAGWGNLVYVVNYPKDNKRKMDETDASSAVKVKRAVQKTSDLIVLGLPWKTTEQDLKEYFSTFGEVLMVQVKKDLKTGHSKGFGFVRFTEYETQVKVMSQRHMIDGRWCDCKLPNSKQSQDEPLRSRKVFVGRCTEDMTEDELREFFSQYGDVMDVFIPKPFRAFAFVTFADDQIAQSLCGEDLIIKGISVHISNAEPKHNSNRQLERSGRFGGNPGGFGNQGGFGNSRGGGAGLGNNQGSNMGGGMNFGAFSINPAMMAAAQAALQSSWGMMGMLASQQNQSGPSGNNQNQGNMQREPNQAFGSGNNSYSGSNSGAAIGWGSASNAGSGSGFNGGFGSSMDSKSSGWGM
T2 sequence (P07737 whole entry): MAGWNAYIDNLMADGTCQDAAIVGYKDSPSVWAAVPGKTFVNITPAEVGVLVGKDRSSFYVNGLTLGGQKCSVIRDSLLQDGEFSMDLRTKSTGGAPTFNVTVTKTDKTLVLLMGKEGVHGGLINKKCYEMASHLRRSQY

As to `O=C1N[C@H]2[C@H](CS[C@H]2CCCCC(=O)OCCCCCCNC(=O)c2cc(-c3cccs3)on2)N1` [b-isox, biotinylated isoxazole], in the assay on SMNA7 cells, the “morphology of SMNA7 cells” value is “became round and detached”. Also, at SMN, the “precipitation of SMN by b-isox” value was “precipitation of both SMN and sumoylated SMN”. Besides, the “precipitation of PFN1 by b-isox” value on PFN1 is given as “precipitated”. Further, the “precipitation of Rb by b-isox” value on Rb is reported as “precipitation of Rb”. The “short cylindrical filaments of TDP-43 and Lam B” value in assay [1] is on record as “disrupted”.
